The test system of one assay is MMP activities. The assay is described as follows: Fluorescent substrate assay (FSA) of MMP activity in HDMEC conditioned media. The format is biochemical, human. The conditions noted are these: concentrated conditioned media from HDMEC cultures +/- PMA; Knight substrate. The protocol: Replicate hTERT(+)HDMECs (PD30, 60, 90) and primary controls (PD5, PD25) are seeded at equal densities, grown to confluence and switched to EBM media (Clonetics, San Diego, Calif.) containing growth factors, but no serum, for 72 hrs. Media is collected and total protein measured (Pierce, Rockford, Ill.). […] In addition, conditioned media are analyzed by a fluorescent substrate assay (FSA).
The FSA is an assay system for MMP activities based on recently-developed fluorogenic substrates that utilize 7-methoxycoumarin (MOC)-labeled MMP-specific small peptides (“Knight” substrate; Knight CG. Fluorimetric Assays of Proteolytic Enzymes. Met Enzymol 1995, 248:18-34). Release of MOC from the 2,4-dinitrophenyl-quenched peptide by active MMPs results in proportional increases in fluorescence with time. Activities of recombinant MMP-2 and MMP-9 using the Knight substrate were readily detectable and yielded linear initial reaction rates over 10 minutes. Calculated initial rates of hydrolysis of the Knight substrate (4 uM) by MMP-2 (1.2 nM), MMP-9 (1.2 nM), and MMP-2 (0.6 uM) plus MMP-9 (0.6 uM) were 571.1 units/min, 208.2 units/min, and 242 units/min, respectively. […]

Assay [1] concerns GNMEC1 (eGFP-labeled hTERT(+)HDMEC). The assay is described as follows: In vitro angiogenic web formation on Matrigel. The conditions noted are these: GNMEC1 pretreated with COX antagonist, then plated on Matrigel; FIG. 17. The format is cell-based, human. The protocol: Tubule formation on Matrigel. Matrigel (Collaborative Biomedical Products) was placed on ice and allowed to thaw overnight in a darkened cold room or refrigerator. Three hundred fifty microliters of the Matrigel was layered onto a pre-chilled well of a 6-well plate and then placed in an incubator at 37° C. for one half hour for the Matrigel to solidify. About 350,000 cells in M199/15% FBS/10 U/ml heparin/16 ig/ml ECGF were then seeded onto the matrix and allowed to incubate at 37° C., 5% CO2 environment. […] To show the utility of this in vitro system, we pretreated GNMEC1 with two different cyclo-oxygenase (COX) antagonists which are known to block angiogenesis (Jones et al. 1999 Nature Medicine 5:12;1418-23) and then plated the cells on Matrigel. […] The “tubulogenic process” can be followed and quantified utilizing cell lines such as GNMEC1 and digitally-converted fluorescence microscopic images of replicate cultures. Commercially available programs in current use with other cellular applications which maybe used to perform this process include MetaMorph® (Universal Imaging Corporation®, West Chester, Pa.) and the high-throughput imaging systems of Cellomics, Inc. (Pittsburgh, Pa.).

For assay [2], the system named is primary normal human keratinocyte (NHK) cultures. The assay can be described thus: Fluorescent substrate assay (FSA) of net MMP activity in keratinocyte conditioned media. The assay is classed as cell-based. The conditions noted are these: conditioned media of PMA-treated NHK, only after APMA activation. From the text:
The FSA is an assay system for MMP activities based on recently-developed fluorogenic substrates that utilize 7-methoxycoumarin (MOC)-labeled MMP-specific small peptides (“Knight” substrate; Knight CG. Fluorimetric Assays of Proteolytic Enzymes. Met Enzymol 1995, 248:18-34). Release of MOC from the 2,4-dinitrophenyl-quenched peptide by active MMPs results in proportional increases in fluorescence with time. Activities of recombinant MMP-2 and MMP-9 using the Knight substrate were readily detectable and yielded linear initial reaction rates over 10 minutes. Calculated initial rates of hydrolysis of the Knight substrate (4 uM) by MMP-2 (1.2 nM), MMP-9 (1.2 nM), and MMP-2 (0.6 uM) plus MMP-9 (0.6 uM) were 571.1 units/min, 208.2 units/min, and 242 units/min, respectively.
Reverse zymography confirmed the presence of TIMPs.

The test system of assay [3] is human microvessel formation by GNMEC1. The assay can be described thus: In vivo human microvascular remodeling assay, GNMEC1 in Matrigel implants in SCID mice. More on the design: species or system human cells in SCID mice. The settings on record: agents mixed with GNMEC1 in Matrigel before implantation in SCID mice; FIG. 24-27; preliminary studies. An excerpt: (§1) SCID mice were implanted with Matrigel mixtures containing either b-FGF, primary HDMEC (PD1O) or hTERT(+)HDMEC via subcutaneous injection on ventral thoracic surfaces. Implants were harvested at 2 weeks, sectioned and stained with H&E and anti-human basement membrane Type 4 collagen. […] The presence of red blood cells within these human vessels indicates host vasculature has anastamosed with the human vessels creating murine-human chimeric microvasculature.
All agents were incorporated into Matrigel by mixing cells and agents together before implantation. The effect of continuous exposure at different concentrations was not performed but would be likely to greatly accentuate the results shown in these preliminary studies.

Assay [4] concerns HDMEC-GT derived microvessels. The assay is described as follows: SCID mice xenografting of HDMEC-GT in Matrigel, human vessel quantification. The format is in vivo, human cells in SCID mice. The conditions noted are these: for human vessel density (human type IV collagen micromorphometry): two weeks after implantation, VEGF 2 μg/ml or FGF-2 150 ng/ml mixed with HDMEC-GT and Matrigel, only FGF-2 significant (p<0.01). Here is the method: This procedure is based on a modification of the mouse angiogenesis model previously described^41. Two-three week old male or female SCID mice (Taconic, Germantown, N.Y.) were used as hosts for all implants. Primary HDMEC and HDMEC-T were harvested, washed twice and re-suspended in serum-free EGM-2 basal medium at the concentration of 1×10^5/μl. Ten μl of cells were mixed with 0.5 ml of Matrigel on ice and the mixture was implanted in the ventral midline thoracic tissue of each mouse by subcutaneous injection using a #25 needle. Up to three separate injections could be performed on a single mouse. For some experiments, recombinant human VEGF165 (2 μg/ml) (R&D systems, Minneapolis, Minn.) or bovine FGF-2 (150 ng/ml) (R&D systems, Minneapolis, Minn.) were added to the mixture. When tumor cells (HT1080 and 293, ATCC) or primary human dermal fibroblasts 38 were injected, the procedure remained the same except basal DMEM medium replaced EGM-2. 41. Passaniti, A. et al. A simple, quantitative method for assessing angiogenesis and antiangiogenic agents using reconstituted basement membrane, heparin, and fibroblast growth factor. Lab. Invest. 67, 519-528 (1992).
Matrigel implants were removed at 1, 2, 4 and 6 wk following xenografting, fixed in 10% buffered formalin overnight, paraffin-embedded and sectioned. H&E stained thin sections were prepared at Pan-insular Histopathology laboratory (Los Gatos, Calif.). For immunofluorescence, thin sections were deparaffinized and antigens retrieved in 10 mM citric acid (pH 6.0) by microwaving sections for 2×7 min. […] For micromorphometry, 5 separate 20×fields were randomly selected per tissue section and the number of annular structures were counted and averaged. […] Passaniti, A. et al. A simple, quantitative method for assessing angiogenesis and antiangiogenic agents using reconstituted basement membrane, heparin, and fibroblast growth factor. […]
For digital analysis of eGFP fluorescence images we used a novel algorithm (Moss Filter™) to determine the total amount of vascularization in each implant section. […]
In general terms: Xenograft models place foreign cells or tissue in a host animal.

Assay [5] deals with host murine microvasculature. The assay is described as follows: Host vessel invasion of Matrigel implants in SCID mice. The assay is classed as in vivo. The conditions noted are these: FGF-2 alone in Matrigel, no human EC.
Text: as §1
This procedure is based on a modification of the mouse angiogenesis model previously described^41. Two-three week old male or female SCID mice (Taconic, Germantown, N.Y.) were used as hosts for all implants. […] Passaniti, A. et al. A simple, quantitative method for assessing angiogenesis and antiangiogenic agents using reconstituted basement membrane, heparin, and fibroblast growth factor. […]
Matrigel implants were removed at 1, 2, 4 and 6 wk following xenografting, fixed in 10% buffered formalin overnight, paraffin-embedded and sectioned. […] For micromorphometry, 5 separate 20×fields were randomly selected per tissue section and the number of annular structures were counted and averaged. […] Passaniti, A. et al. A simple, quantitative method for assessing angiogenesis and antiangiogenic agents using reconstituted basement membrane, heparin, and fibroblast growth factor. […]

The subject of the next assay is hTERT(+) HDMEC (TERT-1). The assay is described as follows: Cell surface marker expression after TNF stimulation, TERT-1. The format is cell-based, human. The settings on record: TNFá stimulation for 16 hr. Here is the method: (§2) The hTERT(+) HDMEC (TERT-1) line expressed uniformly high PCAM but relatively low levels of ICAM-1 (30%), VCAM-1 (1.3%) and CD34 (19.5%) at baseline. […] The latter result was consistent with experiments performed in support of the present invention that studied the same characteristics of primary HDMEC CD34 expression.
(§3) The antibodies used for flow Cytometry were anti-PECAM (Becton Dickinson), ICAM (Pharmingen), and Apo2.7 (Immunotech). […] For apo 2.7 assay, the cells were treated with TNFá+actinomycin D (AMD), LPS+cycloheximide (CHX), or UV light 16 hours prior to the experiments. One group of cells were serum starved for 40 hours. The cells are incubated with either PE conjugated primary antibody or un-conjugated primary antibody+PE conjugated secondary antibody at 37° C. The data was collected and analyzed with CellQuest (Becton Dickinson) or Coulter EPICS cell sorter.

The next assay concerns primary HDMEC (control). The assay can be described thus: Cell surface marker expression after TNF stimulation, primary HDMEC. The format is cell-based, human. The conditions noted are these: TNFá stimulation for 16 hr. Here is the method:
as §2, §3

“Also recorded” adds a separate entry of the source.

As for `c1cnc2c(c1)ccc1cccnc12` [1, 10 phenanthraline, reference compound], the “blocking of MMP activities” value in the assay on MMP activities was “completely blocked”.

As to `CS(=O)(=O)Nc1ccc([N+](=O)[O-])cc1OC1CCCCC1` [NS-398], in assay [1], the “angiogenic web blockade (dose-response curve)” value is reported as “angiogenic web blockade”.

Regarding `CCCCCCCCCCCCCC(=O)O[C@@H]1[C@@H](C)[C@@]2(O)[C@@H](C=C(CO)C[C@]3(O)C(=O)C(C)=C[C@@H]23)[C@@H]2C(C)(C)[C@]12OC(C)=O` [PMA, reference compound], the “net MMP activity” value in assay [2] was 10.1 units/min/ug total protein. For the same compound, the “effect on human microvessel formation in vivo (microvessel density, anti-human Type 4 collagen immuno-micromorphometry)” value in assay [3] is reported as “angiostatic qualities”.

For `COc1ccc2c(c1)c(CC(=O)O)c(C)n2C(=O)c1ccc(Cl)cc1` [indomethacin], the “angiogenic web blockade (dose-response curve)” value in assay [1] is given as “angiogenic web blockade”.

Take “FGF-2: bovine FGF-2 (R&D systems), pro-angiogenic factor”: the “human vessel density (human type IV collagen micromorphometry)” value in assay [4] is “statistically increased human vessel density”. For the same compound, the “effect on human microvessel formation in vivo (microvessel density, anti-human Type 4 collagen immuno-micromorphometry)” value in assay [3] is “greatest stimulatory effect”. In addition, the “host vessel invasion of Matrigel implants” value in assay [5] is “marked host vessel invasion; also recorded: stimulated”; in assay [5] (listed as b-FGF) it was “host microvasculature is readily apparent invading”.

Regarding TNFá, the VCAM-1 expression with hTERT(+) HDMEC (TERT-1) (TERT-1 (baseline 1.3%)) and in the assay on primary HDMEC (control) (control primary cells) was 41% throughout. For the same compound, the CD34 expression with hTERT(+) HDMEC (TERT-1) (TERT-1 (baseline 19.5%)) is reported as 1.6%; with primary HDMEC (control) (primary cells) it was 45%. For the same compound, the ICAM-1 expression with hTERT(+) HDMEC (TERT-1) (TERT-1 (baseline 30%)) and in the assay with primary HDMEC (control) (control primary cells) was greater than 99% each time.

Take VEGF: in assay [4] (VEGF mixed with HDMEC-GT and Matrigel, two weeks, not statistically significant), the “increased vessel density relative to controls” value is 20-30%. Also, the “human vessel density (human type IV collagen micromorphometry)” value in assay [4] is on record as “increased vessel density”.

Turning to “rTIMP-1: Tissue Inhibitor of Matrix metalloProteinases 1”, the “blocking of MMP activities” value in the assay on MMP activities is “partially blocked”.

These data come from patent US20030175961A1, “Immortal micorvascular endothelial cells and uses thereof” (priority 2002, published 2003).
